Results on 25 molecules are retold here after patent publication US8202513B2, “Aryl potassium channel blockers and uses thereof” (Bionomics Limited, priority 2007, dated 2012).

pEC50: −log10 of the molar value.

T1 sequence (Q09470 whole entry): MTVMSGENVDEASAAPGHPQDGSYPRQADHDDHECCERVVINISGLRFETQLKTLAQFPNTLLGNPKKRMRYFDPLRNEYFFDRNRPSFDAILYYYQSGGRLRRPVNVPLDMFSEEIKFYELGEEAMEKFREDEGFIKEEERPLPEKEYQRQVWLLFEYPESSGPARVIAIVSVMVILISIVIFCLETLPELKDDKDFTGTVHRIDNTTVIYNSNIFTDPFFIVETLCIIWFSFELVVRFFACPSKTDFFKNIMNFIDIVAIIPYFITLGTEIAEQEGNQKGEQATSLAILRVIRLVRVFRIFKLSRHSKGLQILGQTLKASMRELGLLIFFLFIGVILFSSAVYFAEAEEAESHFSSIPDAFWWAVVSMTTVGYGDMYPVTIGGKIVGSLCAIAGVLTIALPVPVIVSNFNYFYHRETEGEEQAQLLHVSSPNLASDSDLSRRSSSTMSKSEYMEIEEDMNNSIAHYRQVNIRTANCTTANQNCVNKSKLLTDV

For one assay, the target named is hKv1.5 (Homo sapiens, UniProt P22460). The assay is described as follows: Inhibition of Kv1.5 currents, planar patch clamp (selectivity). Type of assay: cell-based. As to conditions: CHO cells stably transfected with hKv1.5. Here is the method: (§1) EC50 values for inhibition of Kv1.1 and Kv1.5 currents were determined by the method according to Schmitz et al (2005) Molecular Pharmacology 68, 1254-1270 with the following differences: • 1. Chinese Hamster Ovary (CHO) cells stably transfected with hKv1.1 and hKv1.5 were used in place of transfected rat L929 cells. • 2. All electrophysiology was performed using planar patch clamp (Port-A-Patch, Nanion Technologies Gmbh, Munich) in contrast to conventional patch clamp. • 3. EC50 values shown were determined from averaged dose response data obtained from 3 or more cells.
hKv1.5, sequence (P22460 whole entry): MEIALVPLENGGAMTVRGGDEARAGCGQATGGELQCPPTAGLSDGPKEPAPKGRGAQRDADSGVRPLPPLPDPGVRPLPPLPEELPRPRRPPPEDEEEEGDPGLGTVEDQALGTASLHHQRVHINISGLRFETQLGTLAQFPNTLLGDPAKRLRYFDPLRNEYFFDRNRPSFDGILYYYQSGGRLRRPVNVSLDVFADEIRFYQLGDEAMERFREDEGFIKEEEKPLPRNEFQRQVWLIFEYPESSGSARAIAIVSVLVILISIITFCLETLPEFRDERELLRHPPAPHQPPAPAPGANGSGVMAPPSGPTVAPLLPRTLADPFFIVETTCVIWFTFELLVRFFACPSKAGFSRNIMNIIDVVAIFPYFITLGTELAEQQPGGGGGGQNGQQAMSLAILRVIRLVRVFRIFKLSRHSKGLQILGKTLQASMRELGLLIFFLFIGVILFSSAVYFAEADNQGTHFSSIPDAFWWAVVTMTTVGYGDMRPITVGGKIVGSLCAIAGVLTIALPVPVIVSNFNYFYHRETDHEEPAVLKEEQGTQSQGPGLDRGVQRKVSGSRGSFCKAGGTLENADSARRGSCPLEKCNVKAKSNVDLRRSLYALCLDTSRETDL
(The patch-clamp technique gives a direct electrical read-out from membranes.)
`COc1c(Cl)c(C)c(C(C)=O)c(OCCN2CCOCC2)c1OCCC(C)c1ccc(F)cc1` (centres unmarked) [Example 8b, 1-[3-Chloro-5-[3-(4-fluoro-phenyl)-butoxy]-4-methoxy-2-methyl-6-(2-morpholin-4-yl-ethoxy)-phenyl]-ethanone]: the “selectivity for Kv1.3 over Kv1.5” value amounted to 35 fold.

On to `COc1c(Cl)c(C)c(C(C)=O)c(OCCc2ccccn2)c1OCCC(C)c1ccc(F)cc1` (centres unmarked) [Example 7d, 1-[3-Chloro-5-[3-(4-fluoro-phenyl)-butoxy]-4-methoxy-2-methyl-6-(2-pyridin-2-yl-ethoxy)-phenyl]-ethanone], for which the “selectivity for Kv1.3 over Kv1.5” value is given as 37 fold.

The next assay concerns the target T1, hKv1.1 (Homo sapiens, UniProt Q09470).
T1 construct: expressed in transfected cells; host or cells: CHO cells, stably transfected
The assay is described as follows: Inhibition of Kv1.1 currents, planar patch clamp (selectivity). Format: cell-based. Particulars: CHO cells stably transfected with hKv1.1. Here is the method: as §1
For the molecule `COc1c(Cl)c(C)c(C(C)=O)c(OCCN2CCOCC2)c1OCCC(C)c1ccc(F)cc1` (centres unmarked) [Example 8b, 1-[3-Chloro-5-[3-(4-fluoro-phenyl)-butoxy]-4-methoxy-2-methyl-6-(2-morpholin-4-yl-ethoxy)-phenyl]-ethanone], the “Selectivity for Kv1.3 over Kv1.1” value turned out to be 33 fold. Still for that read-out and setting: in the case of `COc1c(Cl)c(C)c(C(C)=O)c(OCCc2ccccn2)c1OCCC(C)c1ccc(F)cc1` (centres unmarked) [Example 7d, 1-[3-Chloro-5-[3-(4-fluoro-phenyl)-butoxy]-4-methoxy-2-methyl-6-(2-pyridin-2-yl-ethoxy)-phenyl]-ethanone] it was 45 fold.

The target of a further assay is Kv1.3 channel (Homo sapiens, UniProt P22001).
Kv1.3 channel, sequence (P22001 whole entry): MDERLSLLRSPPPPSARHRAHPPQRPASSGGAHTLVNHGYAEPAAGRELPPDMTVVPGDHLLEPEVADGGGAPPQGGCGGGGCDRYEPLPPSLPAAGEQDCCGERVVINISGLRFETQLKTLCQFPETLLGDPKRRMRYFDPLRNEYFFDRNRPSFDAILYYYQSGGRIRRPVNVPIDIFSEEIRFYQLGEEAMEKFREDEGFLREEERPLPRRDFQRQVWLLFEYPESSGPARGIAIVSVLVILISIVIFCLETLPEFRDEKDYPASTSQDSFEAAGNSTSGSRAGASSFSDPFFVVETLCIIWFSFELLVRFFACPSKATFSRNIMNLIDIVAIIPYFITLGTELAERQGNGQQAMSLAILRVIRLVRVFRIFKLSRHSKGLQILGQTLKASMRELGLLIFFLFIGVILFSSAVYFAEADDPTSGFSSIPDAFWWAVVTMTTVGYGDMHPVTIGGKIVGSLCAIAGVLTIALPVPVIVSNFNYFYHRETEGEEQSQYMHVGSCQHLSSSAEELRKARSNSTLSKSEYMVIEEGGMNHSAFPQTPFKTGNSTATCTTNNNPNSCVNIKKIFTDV
Test: not given
As to conditions: cited from earlier work.
In the case of `COc1c2occc2cc2ccc(=O)oc12` [8-Methoxypsoralen (8-MOP), 8-Methoxypsoralen], the “blocking activity on the Kv1.3 channel” value is recorded as “weak blocking activity”. On to `COc1c(C(C)=O)c(O)c(OC)c2occc12` [Khellinone], for which the “blocking activity on the Kv1.3 channel” value is recorded as “weak blocking activity”.

A further assay deals with T2, human Kv1.3 ion channel (Homo sapiens, UniProt P22001).
T2 construct: Human Jurkat cells (which endogenously express hKv1.3) or Chinese Hamster Ovary (CHO) cells stably transfected with hKv1.3 were used; endogenous in cells; host or cells: Human Jurkat cells (endogenous) or CHO cells stably transfected with hKv1.3
T2 sequence (P22001 whole entry): as above
Nature of the assay: Inhibition of Kv1.3 currents, planar patch clamp. Type of assay: cell-based. As to conditions: Human Jurkat cells or CHO cells stably transfected with hKv1.3; averaged dose response data from 3 or more cells. The procedure:
Potency of compounds to inhibit the human Kv1.3 ion channel was determined as follows:
as §1, with “Kv1.3” for “Kv1.1 and Kv1.5”, “1. Human Jurkat cells (which endogenously express hKv1.3) or” for “1.”, “hKv1.3” for “hKv1.1 and hKv1.5”
What is called pEC50 is −log10 of the EC50, conventionally taken in molar units. Low readings indicate a high EC50, high ones a low EC50. In turn, `COc1cc(C)c(C(C)=O)c(O)c1OCCCc1ccccc1` [Example 33a, 1-(3-(3-(phenyl)propoxy)-2-hydroxy-4-methoxy-6-methylphenyl)ethanone, reference compound] gave a pEC50 of under 6.52. Still for that read-out and setting: the result for `COc1c(Cl)c(C)c(C(C)=O)c(OCCN2CCCCC2)c1OCCC(C)c1ccc(F)cc1` (centres unmarked) [Example 10, 1-[3-Chloro-5-[3-(4-fluoro-phenyl)-butoxy]-4-methoxy-2-methyl-6-(2-piperidin-1-yl-ethoxy)-phenyl]-ethanone] reads over 7.30. The molecule `COc1c(C)c(C)c(C(C)=O)c(OCCNC2CCCC2)c1OCCC(C)c1ccc(F)cc1` (centres unmarked) [Example 6, 1-{2-(2-Cyclopentylamino-ethoxy)-3-[3-(4-fluoro-phenyl)-butoxy]-4-methoxy-5,6-dimethyl-phenyl}-ethanone] gave a pEC50 of over 7.30. On the same count and under the same terms, in the case of `COc1c(Cl)c(C)c(C(C)=O)c(OCCN2CCOCC2)c1OCCC(C)c1ccc(F)cc1` (centres unmarked) [Example 8b, 1-[3-Chloro-5-[3-(4-fluoro-phenyl)-butoxy]-4-methoxy-2-methyl-6-(2-morpholin-4-yl-ethoxy)-phenyl]-ethanone] it was over 7.30. Same read-out and setting: the result for `COc1c(Cl)c(C)c(C(C)=O)c(OCCN2CCC(F)(F)C2)c1OCCCc1ccccc1` [Example 37, 1-[3-Chloro-6-[2-(3,3-difluoro-pyrrolidin-1-yl)-ethoxy]-4-methoxy-2-methyl-5-(3-phenyl-propoxy)-phenyl]-ethanone] reads 6.52 to 6.82. As to `C=CCc1c(NC(C)=O)ccc(C(C)=O)c1OCCCc1ccccc1` [reference compound], the pEC50 is under 6.52.

`CC(=O)c1ccc(N)cc1OCCCc1ccccc1` [reference compound] showed a pEC50 of under 6.52.

`COc1c(Cl)c(C)c(C(C)=O)c(OCCCN2CCOCC2)c1OCCC(C)c1ccc(F)cc1` (centres unmarked) [Example 22b, 1-[3-Chloro-5-[3-(4-fluoro-phenyl)-butoxy]-4-methoxy-2-methyl-6-(3-morpholin-4-yl-propoxy)-phenyl]-ethanone] gave a pEC50 of over 7.30. The same measure, in the same setting: in the case of `COc1c(Cl)c(C)c(C(C)=O)c(OCCN2CCCC(F)(F)C2)c1OCCC(C)c1ccc(F)cc1` (centres unmarked) [Example 17, 1-{3-Chloro-6-[2-(3,3-difluoro-piperidin-1-yl)-ethoxy]-5-[3-(4-fluoro-phenyl)-butoxy]-4-methoxy-2-methyl-phenyl}-ethanone] it was over 7.30; in that of `CC(=O)c1c(OCCCCOc2ccccc2)cccc1OCCN1CCOCC1` [reference compound], under 6.52.

`COc1c(Cl)c(C)c(C(C)=O)c(OCCc2ccccn2)c1CCCCc1ccccc1` [Example 27, 1-(3-Chloro-4-methoxy-2-methyl-5-(4-phenylbutyl)-6-(2-(pyridine-2-yl)ethoxy)phenyl)ethanone] had a pEC50 of over 7.30. For the molecule `COc1c(Cl)c(C)c(C(C)=O)c(OCCc2ccccn2)c1CCCC(C)c1ccc(F)cc1` (centres unmarked) [Example 32, 1-[3-Chloro-5-[4-(4-fluoro-phenyl)-pentyl]-4-methoxy-2-methyl-6-(2-pyridin-2-yl-ethoxy)-phenyl]-ethanone], the pEC50 is over 7.30. In turn, `CC(=O)c1c(O)cccc1OCCCCOc1ccccc1` [reference compound] had a pEC50 of under 6.52.

Molecule `COc1c(Cl)c(C)c(C(C)=O)c(OCc2ccccn2)c1OCCC(C)c1ccc(F)cc1` (centres unmarked) [Example 13, 1-[3-Chloro-5-[3-(4-fluoro-phenyl)-butoxy]-4-methoxy-2-methyl-6-(pyridin-2-ylmethoxy)-phenyl]-ethanone] had a pEC50 of 6.52 to 6.82. The molecule `COc1c(Cl)c(C)c(C(C)=O)c(OCCN2CCSCC2)c1OCCCc1ccccc1` [Example 36, 1-[3-Chloro-4-methoxy-2-methyl-5-(3-phenyl-propoxy)-6-(2-thiomorpholin-4-yl-ethoxy)-phenyl]-ethanone] showed a pEC50 of 6.82 to 7.30.

Turning to `COc1ccc(C(C)=O)c(NC(=O)CCc2ccccc2)c1` [reference compound], the pEC50 is under 6.52. Same read-out and setting: the result for `COc1c(Cl)c(C)c(C(C)=O)c(OCCn2ccnc2)c1OCCC(C)c1ccc(F)cc1` (centres unmarked) [Example 41, 1-[3-Chloro-5-[3-(4-fluoro-phenyl)-butoxy]-6-(2-imidazol-1-yl-ethoxy)-4-methoxy-2-methyl-phenyl]-ethanone] reads over 7.30; that for `COc1c(Cl)c(C)c(C(C)=O)c(OCCN2CC(F)(F)C2)c1OCCC(C)c1ccc(F)cc1` (centres unmarked) [Example 20, 1-{3-Chloro-6-[2-(3,3-difluoro-azetidin-1-yl)-ethoxy]-5-[3-(4-fluoro-phenyl)-butoxy]-4-methoxy-2-methyl-phenyl}-ethanone], 6.82 to 7.30; that for `COc1c(C)c(C)c(C(C)=O)c(OCCN2CCOCC2)c1OCCCc1ccc(F)cc1` [Example 3c, 1-[3-[3-(4-Fluoro-phenyl)-propoxy]-4-methoxy-5,6-dimethyl-2-(2-morpholin-4-yl-ethoxy)-phenyl]-ethanone], 6.82 to 7.30.

For `COc1c(Cl)c(C)c(C(C)=O)c(OCCc2ccccn2)c1OCCC(C)c1ccc(F)cc1` (centres unmarked) [Example 7d, 1-[3-Chloro-5-[3-(4-fluoro-phenyl)-butoxy]-4-methoxy-2-methyl-6-(2-pyridin-2-yl-ethoxy)-phenyl]-ethanone], the pEC50 was over 7.30.

For the molecule `COc1cc(OCCCCOc2ccccc2)c(C(C)=O)c(OCCN2CCOCC2)c1` [reference compound], the pEC50 is under 6.52. On the same count and under the same terms, in the case of `CCCc1c(NCC)ccc(C(C)=O)c1OCCCc1ccccc1` [reference compound] it was under 6.52; in that of `COc1ccc(C(C)=O)c(NCCCc2ccccc2)c1` [reference compound], under 6.52.
